Patent US6562818B1, “Irreversible inhibitors of tyrosine kinases” (Warner-Lambert Company, priority 1997, dated 2003)
Where a name gives a salt, the structure may show the parent alone.

Experiments:
[1] = molecular target: Human EGF receptor tyrosine kinase (Homo sapiens, UniProt P00533); settings: read-out: EGFR (isolated enzyme) IC50; isolated enzyme from A431 cells, 10 μM ATP
Description: Human EGF receptor tyrosine kinase was isolated from A431 human epidermoid carcinoma cells by the following method. Cells were grown in roller bottles in dMEM/F12 media (Gibco/BRL) containing 10% fetal calf serum. Approximately 10^9 cells were lysed in 2 volumes of buffer containing 20 mM N-[2-hydroxyethyl]piperazine-N′-[2-ethane sulfonic acid](Hepes), pH 7.4, 5 mM ethylene glycol-bis(β-aminoethyl ether) N,N,N′,N′-tetraacetic acid (EGTA), 1% Triton X-100, 10% glycerol, 0.1 mM sodium orthovanadate, 5 mM sodium fluoride, 4 mM pyrophosphate, 4 mM benzamide, 1 mM dithiothreitol (DTT), 80 μg/mL aprotinin, 40 μg/mL leupeptin, and 1 mM phenylmethyl sulfonyl fluoride (PMSF). After centrifugation at 25,000×g for 10 minutes, the supernatant was applied to a fast Q sepharose column (Pharmacia Biotech., Inc., Piscataway, N.J.) and eluted with a linear gradient from 0.1 M NaCl to 0.4 M NaCl in 50 mM Hepes, 10% glycerol, pH 7.4. Enzyme active fractions were pooled, divided into aliquots, and stored at −100° C.
Enzyme assays for IC50 determinations were performed in 96-well filter plates (Millipore MADVN6550, Millipore, Bedford, Mass). […] The wells are then washed 5 times with 0.2 mL of 10% TCA and ^32P incorporation determined with a Wallac beta plate counter (Wallac, Inc., Gaithersburg, Pa.).

EGFR [2] = molecular target: T1, EGFR (Homo sapiens, UniProt P00533); settings: read-out: EGFR (autophosphorlyation) IC50; A431 cells, 15 minutes compound, stimulated with 100 ng/mL EGF
T1 sequence (P00533 25-1210 limits assumed): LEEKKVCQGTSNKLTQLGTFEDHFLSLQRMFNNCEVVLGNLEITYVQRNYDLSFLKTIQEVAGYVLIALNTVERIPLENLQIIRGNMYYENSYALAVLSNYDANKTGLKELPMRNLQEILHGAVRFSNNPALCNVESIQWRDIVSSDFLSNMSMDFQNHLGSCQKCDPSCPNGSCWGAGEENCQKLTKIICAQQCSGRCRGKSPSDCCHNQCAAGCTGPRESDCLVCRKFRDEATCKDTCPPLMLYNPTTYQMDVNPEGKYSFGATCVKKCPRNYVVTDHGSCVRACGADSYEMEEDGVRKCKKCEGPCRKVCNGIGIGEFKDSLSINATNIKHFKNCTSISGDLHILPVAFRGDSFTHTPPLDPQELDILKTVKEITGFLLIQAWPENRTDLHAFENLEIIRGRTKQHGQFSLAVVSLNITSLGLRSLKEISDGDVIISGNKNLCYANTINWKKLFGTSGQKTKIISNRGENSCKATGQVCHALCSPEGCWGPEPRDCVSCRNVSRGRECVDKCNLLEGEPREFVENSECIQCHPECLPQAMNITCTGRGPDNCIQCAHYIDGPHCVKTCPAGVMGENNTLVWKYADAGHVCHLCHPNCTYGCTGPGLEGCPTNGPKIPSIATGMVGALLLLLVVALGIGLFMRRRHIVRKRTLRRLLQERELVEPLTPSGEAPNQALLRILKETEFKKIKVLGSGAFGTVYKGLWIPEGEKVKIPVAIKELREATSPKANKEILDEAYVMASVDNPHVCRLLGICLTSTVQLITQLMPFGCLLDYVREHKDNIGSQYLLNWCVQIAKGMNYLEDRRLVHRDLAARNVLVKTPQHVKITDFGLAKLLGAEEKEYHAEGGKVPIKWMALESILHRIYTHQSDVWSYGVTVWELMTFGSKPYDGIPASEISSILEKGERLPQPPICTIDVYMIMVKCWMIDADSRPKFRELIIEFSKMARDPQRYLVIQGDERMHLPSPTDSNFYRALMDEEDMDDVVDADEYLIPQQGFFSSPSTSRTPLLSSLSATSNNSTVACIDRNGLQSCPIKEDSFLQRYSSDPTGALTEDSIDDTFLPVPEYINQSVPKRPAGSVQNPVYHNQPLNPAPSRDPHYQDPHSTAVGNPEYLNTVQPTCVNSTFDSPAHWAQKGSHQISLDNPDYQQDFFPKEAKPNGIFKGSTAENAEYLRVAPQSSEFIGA
Description: (§1) Extracts were made by lysing the monolayers in 0.2 mL of boiling Laemlli buffer (2% sodium dodecyl sulfate, 5% beta-mercaptoethanol, 10% glycerol and 50 mM tris[hydroxymethyl]aminomethane (Tris), pH 6.8), and the lysates were heated to 100° C. for 5 minutes. Proteins in the lysate were separated by polyacrylamide gel electrophoresis and electrophoretically transferred to nitrocellulose. The membrane was washed once in 10 mM Tris, pH 7.2, 150 mM NaCl, 0.01% Azide (TNA), and blocked overnight in TNA containing 5% bovine serum albumin and 1% ovalbumin. The membrane was blotted for 2 hours with antiphosphotyrosine antibody (UBI, 1 μg/mL in blocking buffer) and then washed twice in TNA, once in TNA containing 0.05% Tween-20 detergent and 0.05% nonidet P-40 detergent and twice in TNA. […] Band intensities were determined with a Molecular Dynamics laser densitometer.
Duplicate sets of cells were treated with a range of concentrations of the designated compound to be tested as an inhibitor for 15 minutes. The cells were then stimulated with 100 ng/mL of EGF for 5 minutes and extracts made as described under the Western Blotting Procedure.

EGFR [3] = molecular target: T1, EGFR; settings: A431 cells, 2 μM compound
Description: as §1

ErbB-2 = ErbB-2 (Homo sapiens, UniProt P04626); test: ErbB-2 autophosphorylation assay; type: cell-based; settings: read-out: ErbB-2 (autophosphorlyation) IC50
ErbB-2, sequence (P04626 23-1255, species assumed): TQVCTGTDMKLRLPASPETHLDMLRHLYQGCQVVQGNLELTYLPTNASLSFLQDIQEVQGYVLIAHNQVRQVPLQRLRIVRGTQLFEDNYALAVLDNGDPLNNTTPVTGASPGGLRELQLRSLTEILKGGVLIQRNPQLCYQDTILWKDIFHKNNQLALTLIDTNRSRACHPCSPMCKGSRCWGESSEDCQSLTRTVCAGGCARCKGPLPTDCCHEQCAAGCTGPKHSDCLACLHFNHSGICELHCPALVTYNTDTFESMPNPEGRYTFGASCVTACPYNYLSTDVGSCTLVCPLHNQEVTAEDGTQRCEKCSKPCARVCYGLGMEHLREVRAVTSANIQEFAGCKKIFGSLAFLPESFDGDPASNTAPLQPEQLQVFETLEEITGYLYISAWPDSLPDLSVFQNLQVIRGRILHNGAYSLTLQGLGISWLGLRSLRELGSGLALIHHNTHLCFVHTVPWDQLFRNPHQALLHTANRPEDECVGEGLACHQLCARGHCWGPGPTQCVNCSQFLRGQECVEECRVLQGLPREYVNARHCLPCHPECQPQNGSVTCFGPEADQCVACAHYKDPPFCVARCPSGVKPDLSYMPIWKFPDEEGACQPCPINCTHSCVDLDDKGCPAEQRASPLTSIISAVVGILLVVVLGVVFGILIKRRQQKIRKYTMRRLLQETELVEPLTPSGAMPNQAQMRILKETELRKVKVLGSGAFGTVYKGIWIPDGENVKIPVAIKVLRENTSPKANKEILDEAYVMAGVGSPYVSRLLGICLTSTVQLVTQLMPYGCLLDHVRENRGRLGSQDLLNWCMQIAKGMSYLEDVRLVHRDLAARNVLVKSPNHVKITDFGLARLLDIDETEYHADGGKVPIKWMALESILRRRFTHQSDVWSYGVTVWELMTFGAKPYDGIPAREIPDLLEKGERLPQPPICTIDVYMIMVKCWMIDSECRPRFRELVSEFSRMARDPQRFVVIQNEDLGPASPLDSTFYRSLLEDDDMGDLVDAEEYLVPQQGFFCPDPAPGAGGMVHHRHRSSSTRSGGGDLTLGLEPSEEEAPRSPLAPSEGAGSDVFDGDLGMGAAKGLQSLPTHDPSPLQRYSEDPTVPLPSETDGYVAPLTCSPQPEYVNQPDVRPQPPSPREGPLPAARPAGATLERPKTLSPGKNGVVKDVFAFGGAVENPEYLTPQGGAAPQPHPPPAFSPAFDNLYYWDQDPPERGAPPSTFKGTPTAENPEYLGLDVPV

Human EGF receptor tyrosine kinase, sequence (P00533 25-1210 limits assumed): as the sequence (P00533 25-1210 limits assumed) above

A melting point of 185 to 191 °C was found for `C=CC(=O)Nc1ccc2ncnc(Nc3ccc(Oc4ccccc4)cc3)c2c1` (as salt: salt) [Example 1, N-(4-[4-Phenoxyanilino]quinazolin-6-yl)acrylamide] in this work.

A melting point of 227 to 229 °C was found for `C=CC(=O)Nc1ccc2ncnc(Nc3ccc(OCc4ccccc4)cc3)c2c1` (as salt: salt) [Example 2, N-(4-[4-Benzyloxyanilino]quinazolin-6-yl)acrylamide] in this work.

For `C=CC(=O)Nc1ccc2ncnc(Nc3ccc(Oc4ccccc4)cc3)c2c1` [Example 1, N-(4-[4-Phenoxyanilino]quinazolin-6-yl)acrylamide], the IC50 [1] was 5.8 nM, the IC50 (EGFR [2]) was 4.8 nM and the “% EGFR enzyme activity after 8 hours washoff” value (EGFR [3]) was 0%.

For `C=CC(=O)Nc1ccc2ncnc(Nc3ccc(OCc4ccccc4)cc3)c2c1` [Example 2, N-(4-[4-Benzyloxyanilino]quinazolin-6-yl)acrylamide], the IC50 [1] was 3.6 nM, the IC50 (EGFR [2]) was 4.2 nM and the “% EGFR enzyme activity after 8 hours washoff” value (EGFR [3]) was 0%. It also gave an IC50 (ErbB-2) of 7.6 nM.
